“And” between values parts separate entries of the source, which are not always exact repeats. Equal values may be shown once. “Also recorded” adds a separate entry of the source. Read-outs that look alike come from different tables or passages of the source.
Experiments:
[1] = Phase 1 multiple dose (Part 2): safety and tolerability in healthy adults; format: in vivo, human; conditions: 1.25 mg qw fasted
Procedure: All volunteers were followed up for 4 weeks and safety and tolerability were continuously assessed throughout the study. All adverse events (AEs) were recorded from the time of consent to the completion visit and were graded using the DAIDS toxicity grading scale. Volunteers also underwent physical examinations, electrocardiograms, vital sign checks and clinical laboratory parameters (chemistry, haematology, urinalysis).

[2] = 6-month toxicity study in rats; conditions: rat, in vivo
Source text: (§1) Exposure increased more than dose-proportionally at low doses. Variability in exposure was high. • In vitro plasma protein binding was between 79.6% and 94.2% in animals and humans. Volume of distribution after intravenous dosing was high. […] Main metabolic pathways were oxygenation, hydrogenation, dehydrogenation, dealkylation, acetylation, glucuronidation, and/or glutathione conjugation. • In rats, >80% of drug-related material was found in feces, 11% to 20% in bile, and <4% in urine. […] There were no effects on embryofetal development up to 1 mg/kg/dose in rats and 30 mg/kg/dose in rabbits.

[3] = test system: human whole blood cells; assay: cytokine release in vitro in whole blood cells; format: cell-based
Source text: as §1
LEC for Compound 4-induced cytokine release in vitro was determined to be 2 nM.

[4] = Phase 1 single oral dose pharmacokinetics in healthy adults; format: in vivo; conditions: for AUC(0-t): read-out: AUC24 h
Procedure: This ongoing trial is a Phase 1 randomized, double-blind, placebo-controlled study in male and female healthy adult volunteers aged 18-55 years. All volunteers provided written, informed consent. For the SAD phase, 8-10 volunteers per cohort were randomized 6-8:2 to receive a single oral dose of either Compound 4 0.2 (N=6), 0.6 (N=6), 1.25 (N=8) or 1.8 mg (N=6) or placebo (N=2/dose group) under fasted conditions; following an ˜6-week washout period, the cohort subjects which had received 1.25 mg under fasted conditions in Cohort 4 were given the same 1.25 mg dose (N=7) under fed conditions (a standard meal consumed before dosing), in Cohort 6 (FIG. 1). Escalation of the Compound 4 dose was only permitted following a review of the safety and PK data from the previous cohort.
Following a single dose of Compound 4, intensive blood samples were collected over the first 24 hours, samples were then collected daily through Day 7, and weekly samples were collected through Day 35. Plasma concentrations of Compound 4 were evaluated using a validated liquid chromatography with tandem mass spectrometry method; the lower limit of quantification was 1 pg/mL. PK parameters were estimated using non-compartmental analysis (WinNonlin®, Certara, Princeton, NJ, USA). Descriptive statistics were used to summarize plasma concentrations and derived PK parameters of Compound 4. The impact of food on PK parameters was analyzed using geometric least square mean point estimates (mixed-effects model on log-transformed values with treatment as fixed effect and subject as a random effect).

[5] = both sexes, human, plasma, oral, 0.2 mg, single dose 0.2 mg fasted, mean ± SD
[6] = both sexes, human, plasma, oral, 0.6 mg, single dose 0.6 mg fasted, mean ± SD
[7] = both sexes, human, plasma, oral, 1.25 mg, single dose 1.25 mg fasted, mean ± SD
[8] = both sexes, human, plasma, oral, 1.25 mg, single dose 1.25 mg fed, mean ± SD
[9] = both sexes, human, plasma, oral, 1.8 mg, single dose 1.8 mg fasted, mean ± SD

CCCCOc1nc(N)c2[nH]cc(Cc3ccc(CN4CCCC4)cc3)c2n1 [Compound 4]
ECG actual value: Heart rate (bpm) Low [1]: 0 n (%) | ECG actual value: QTcB (ms) ]450; 480] [1]: 1 (16.7%) n (%) | ECG change from reference: QTcB (ms) >60 [1]: 1 (16.7%) n (%) | ECG change from reference: QTcB (ms) [30; 60] [1]: 1 (16.7%) n (%) | ECG change from reference: QTcF (ms) [30; 60] [1]: 1 (16.7%) n (%) | lab toxicity: Amylase (U/L), upwards, Grade 1 [1]: 2 (33.3%) n (%) | lab toxicity: Amylase (U/L), upwards, Grade 2 [1]: 0 n (%) | lab toxicity: Aspartate aminotransferase (U/L), upwards, Grade 1 [1]: 1 (16.7%) n (%) | lab toxicity: Aspartate aminotransferase (U/L), upwards, Grade 2 [1]: 1 (16.7%) n (%) | lab toxicity: Cholesterol (mmol/L), upwards, Grade 1 [1]: 1 (16.7%) n (%) | lab toxicity: Creatine kinase (U/L), upwards, Grade 3 [1]: 1 (16.7%) n (%) | lab toxicity: Creatine kinase (U/L), upwards, Grade 4 [1]: 1 (16.7%) n (%) | lab toxicity: GFR from creatinine adjusted for BSA (mL/s/1.73m^2), downwards, Grade 2 [1]: 1 (16.7%) n (%) | lab toxicity: Glucose (mmol/L), upwards, Grade 1 [1]: 4 (66.7%) n (%) | lab toxicity: Glucose (mmol/L), upwards, Grade 2 [1]: 2 (33.3%) n (%) | lab toxicity: Potassium (mmol/L), upwards, Grade 1 [1]: 1 (16.7%) n (%) | lab toxicity: Sodium (mmol/L), upwards, Grade 1 [1]: 0 n (%) | lab toxicity: Triglycerides (mmol/L), upwards, Grade 1 [1]: 1 (16.7%) n (%) | lab toxicity: Triglycerides (mmol/L), upwards, Grade 2 [1]: 2 (33.3%) n (%) | subjects with at least one AE [1]: 6 (100%) n (%) | subjects with at least one AE for which any study drug or study was permanently stopped [1]: 1 (16.7%) n (%) | subjects with at least one AE for which any study drug or study was temporarily stopped [1]: 0 n (%) | subjects with at least one AE possibly related to any study drug [1]: 2 (33.3%) n (%) | subjects with at least one AE possibly, probably or very likely related to any study drug [1]: 3 (50.0%) n (%) | subjects with at least one AE probably related to any study drug [1]: 1 (16.7%) n (%) | subjects with at least one AE very likely related to any study drug [1]: 1 (16.7%) n (%) | subjects with at least one SAE [1]: 0 n (%) | subjects with at least one fatal AE [1]: 0 n (%) | subjects with at least one grade 1 AE [1]: 5 (83.3%) n (%) | subjects with at least one grade 2 AE [1]: 1 (16.7%) n (%) | subjects with at least one grade 3 or 4 AE [1]: 0 n (%) | subjects with high values for the monocytes/leukocytes ratio (non-graded) [1]: 4 (66.7%) n (%) | subjects with low erythrocyte count (non-graded) [1]: 3 (50.0%) n (%) | treatment-related AE: Abdominal pain [1]: 0 n (%) | treatment-related AE: Any AE [1]: 3 (50.0%) n (%) | treatment-related AE: Arthralgia [1]: 1 (16.7%) n (%) | treatment-related AE: Dry skin [1]: 1 (16.7%) n (%) | treatment-related AE: Dyspnoea [1]: 1 (16.7%) n (%) | treatment-related AE: Eye disorders [1]: 1 (16.7%) n (%) | treatment-related AE: Gastrointestinal disorders [1]: 1 (16.7%) n (%) | treatment-related AE: Headache [1]: 1 (16.7%) n (%) | treatment-related AE: Nausea [1]: 1 (16.7%) n (%) | treatment-related AE: Nervous system disorders [1]: 1 (16.7%) n (%) | treatment-related AE: Respiratory, thoracic and mediastinal disorders [1]: 1 (16.7%) n (%) | treatment-related AE: Retching [1]: 1 (16.7%) n (%) | treatment-related AE: Retinal exudates [1]: 1 (16.7%) n (%) | treatment-related AE: Skin and subcutaneous tissue disorders [1]: 1 (16.7%) n (%) | vital signs: Respiratory rate (brpm) Grade 1 [1]: 4 (66.7%) n (%) | vital signs: SaO2 (%) 95% to <98% [1]: 5 (83.3%) n (%) | vital signs: Standing DBP (mmHg) Grade 1 [1]: 2 (33.3%) n (%) | vital signs: Standing DBP (mmHg) Grade 2 [1]: 2 (33.3%) n (%) | vital signs: Standing DBP (mmHg) Grade 3 [1]: 2 (33.3%) n (%) | vital signs: Standing SBP (mmHg) Grade 1 [1]: 3 (50.0%) n (%) | vital signs: Standing SBP (mmHg) Grade 2 [1]: 0 n (%) | vital signs: Standing SBP (mmHg) Low [1]: 2 (33.3%) n (%) | vital signs: Standing pulse (bpm) High [1]: 3 (50.0%) n (%) | vital signs: Supine DBP (mmHg) Grade 1 [1]: 2 (33.3%) n (%) | vital signs: Supine SBP (mmHg) Grade 1 [1]: 1 (16.7%) n (%) | vital signs: Supine SBP (mmHg) Low [1]: 0 n (%) | vital signs: Supine pulse (bpm) Low [1]: 1 (16.7%) n (%) | lab toxicity: LDL cholesterol (mmol/L, direct), upwards, Grade 1 ([1]; n = 1 with data): 1 (100.0%) n (%) | lab toxicity: Pancreatic amylase (U/L), upwards, Grade 1 ([1]; n = 2 with data): 1 (50.0%) n (%) | AUC(0-t) ([2]; 1.0 mg/kg qw or q2w, read-out: AUC24h at NOAEL): 16.6 to 27.3 ng·h/mL | Cmax ([2]; 1.0 mg/kg qw or q2w, read-out: Cmax at NOAEL): 3.32 to 7.88 ng/mL | NOAEL at 6 months ([2]; qw or q2w, 6 months): 1 mg/kg | overall LEC for cytokine release in vitro [3]: 2 nM | potency on human versus monkey whole blood cells ([3]; most cytokines and chemokines tested): more potent on human whole blood cells compared to monkey whole blood cells | least square mean ratio point estimate of AUC48h, fed vs fasted ([4]; 1.25 mg, 90% CI 65.89-105.71): 83.45 | Predose Level ([4]; before 1.25 mg fed dose, on average 41 days after 1.25 mg fasted dose, mean ± SD): 1.85 pg/mL and 1.85 ± 0.597 pg/mL | Cmax [4, 5]: 0.0344 ± 0.0179 ng/mL | AUC(0-t) [4, 5]: 0.19 ± 0.0972 ng·h/mL | Tmax ([4]; both sexes, human, plasma, oral, 0.2 mg, single dose 0.2 mg fasted, median (range), read-out: tmax): 30 min | Cmax [4, 6]: 0.109 ± 0.0281 ng/mL | AUC(0-t) [4, 6]: 0.594 ± 0.21 ng·h/mL | Tmax ([4]; both sexes, human, plasma, oral, 0.6 mg, single dose 0.6 mg fasted, median (range), read-out: tmax): 30 min | Cmax [4, 7]: 0.143 ± 0.0659 ng/mL | AUC(0-t) [4, 7]: 0.815 ± 0.251 ng·h/mL | Tmax ([4]; both sexes, human, plasma, oral, 1.25 mg, single dose 1.25 mg fasted, median (range), read-out: tmax): 45 min | Cmax [4, 8]: 0.152 ± 0.0764 ng/mL | AUC(0-t) [4, 8]: 0.659 ± 0.194 ng·h/mL | Tmax ([4]; both sexes, human, plasma, oral, 1.25 mg, single dose 1.25 mg fed, median (range), read-out: tmax): 30 min | Cmax [4, 9]: 0.309 ± 0.136 ng/mL | AUC(0-t) [4, 9]: 1.37 ng·h/mL | Tmax ([4]; both sexes, human, plasma, oral, 1.8 mg, single dose 1.8 mg fasted, median (range), read-out: tmax): 30 min | concentration at 41 days ([4]; both sexes, human, plasma, oral, before 1.25 mg fed dose, on average 41 days after 1.25 mg fasted dose, mean ± SD, read-out: Predose Level): 0.00185 ng/mL | CL renal ([4]; both sexes, human, plasma, oral, single dose 1.25 mg fasted, range 1.86-3.81, read-out: mean renal clearance (converted)): 42.8 mL/min | Tmax ([4]; both sexes, human, plasma, po, single oral doses 0.2 to 1.8 mg, read-out: tmax, range over doses): 30 to 60 min | half-life ([4]; both sexes, human, plasma, single oral doses 0.2 to 1.8 mg, read-out: median t1/2 term, range over doses): 5.25 to 36.2 days | t1/2term ([4]; single dose 0.2 mg fasted, median (range)): 150 (126-212) h | CL/F ([4]; single dose 0.2 mg fasted, n = 1): 149 L/h | t1/2term ([4]; single dose 0.6 mg fasted, median (range)): 284 (104-479) h | CL/F ([4]; single dose 0.6 mg fasted, n = 1): 244 L/h | excreted as unchanged drug in urine within the first 24 hours ([4]; single dose 1.25 mg fasted): less than 0.2% | t1/2term ([4]; single dose 1.25 mg fasted, median (range)): 448 (372-502) h | CL/F ([4]; single dose 1.25 mg fasted, n = 3): 254 L/h | t1/2term ([4]; single dose 1.25 mg fed, median (range)): 591 (448-868) h | t1/2term ([4]; single dose 1.8 mg fasted, median (range)): 194 (185-205) h | dose proportionality of exposure ([4]; single oral doses 0.2 to 1.8 mg fasted): increased in proportion with the dose; also recorded: dose-proportional pharmacokinetics

Reference: patent US12263172B2, “Toll-like receptor agonists for use in the treatment of hepatitis b” (priority 2019, dated 2025)
